Laboratory results published in patent US12723063B2, “GIPR-agonist compounds” (Eli Lilly and Company, priority 2019, dated 2026).
*1 amine or outer side, *2 acyl side, *3 side chain or, on linkers, in order; H or OH if unused. Where a SMILES comes first, the peptide text is derived from it. Side-chain parts run from the residue outwards. [ ]: non-standard residue; d: D form. The star is where a group is joined. C20 diacid = O=C(O)CCCCCCCCCCCCCCCCCCC(=O)*; C18 diacid = O=C(O)CCCCCCCCCCCCCCCCC(=O)*; αMePhe(2-F) = C[C@](N)(Cc1ccccc1F)C(=O)O; γGlu = O=C(O)[C@H](CCC(=O)[*:2])N[*:1]; αMeL = CC(C)C[C@](C)(N)C(=O)O; Orn = NCCC[C@H](N)C(=O)O; AEEA = NCCOCCOCC(=O)O; Aib = CC(C)(N)C(=O)O

Experiments:
[1] = target: T1, human glucagon receptor (GcgR) (Homo sapiens, UniProt P47871); assay: cAMP functional assay (HTRF) in HEK293 cells in presence of 0.1% casein; format: cell-based; details: HEK293 cells expressing human GcgR, geometric mean, read-out: hGcgR cAMP Rel EC50 nM (SEM, n)
T1 construct: expressed in transfected cells; host or cells: HEK293
T1 sequence (P47871 26-477): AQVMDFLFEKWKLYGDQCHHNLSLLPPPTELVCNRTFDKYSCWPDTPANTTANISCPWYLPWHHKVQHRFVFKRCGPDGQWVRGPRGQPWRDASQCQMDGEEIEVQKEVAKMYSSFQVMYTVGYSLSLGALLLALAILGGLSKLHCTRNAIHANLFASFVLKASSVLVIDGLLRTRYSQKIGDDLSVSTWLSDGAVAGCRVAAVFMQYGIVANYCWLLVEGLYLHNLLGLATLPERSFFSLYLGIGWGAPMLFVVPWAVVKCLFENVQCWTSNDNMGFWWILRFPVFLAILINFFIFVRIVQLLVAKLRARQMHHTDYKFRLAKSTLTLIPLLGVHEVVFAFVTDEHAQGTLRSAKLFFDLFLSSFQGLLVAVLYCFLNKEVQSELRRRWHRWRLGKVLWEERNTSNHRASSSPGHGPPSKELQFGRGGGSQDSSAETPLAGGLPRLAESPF

[2] = target: T2, human GLP-1 receptor (GLP-1R) (Homo sapiens, UniProt P43220); assay: as above; format: cell-based; details: HEK293 cells expressing human GLP-1R, geometric mean, read-out: hGLP1R cAMP Rel EC50 nM (SEM, n)
T2 construct: expressed in transfected cells; host or cells: HEK293
T2 sequence (P43220 24-463): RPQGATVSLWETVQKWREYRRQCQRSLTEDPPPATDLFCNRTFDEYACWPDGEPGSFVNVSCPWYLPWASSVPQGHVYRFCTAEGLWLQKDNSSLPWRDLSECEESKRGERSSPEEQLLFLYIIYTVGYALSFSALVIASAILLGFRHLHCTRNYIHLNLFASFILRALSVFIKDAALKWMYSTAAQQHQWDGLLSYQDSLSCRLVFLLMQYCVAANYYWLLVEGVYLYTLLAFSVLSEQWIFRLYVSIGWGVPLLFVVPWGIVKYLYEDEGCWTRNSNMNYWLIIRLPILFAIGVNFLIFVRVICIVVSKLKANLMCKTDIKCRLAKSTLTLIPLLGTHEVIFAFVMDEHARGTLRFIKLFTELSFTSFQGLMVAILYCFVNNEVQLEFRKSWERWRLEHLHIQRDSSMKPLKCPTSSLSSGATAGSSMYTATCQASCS

[3] = target: T3, human GcgR (Homo sapiens, UniProt P47871); assay: [125I]-Glucagon binding, SPA with WGA beads, 0.1% bacitracin; details: geometric mean, read-out: hGcgR Ki
T3 construct: expressed in transfected cells; crude membranes
T3 sequence (P47871 26-477): as the sequence (P47871 26-477) above
How it was run: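 SPA competition binding with WGA beads on crude membranes from HEK293 cells stably expressing hGcgR. Buffer: 25 mM HEPES pH 7.4, 2.5 mM CaCl2, 1 mM MgCl2, 0.1% bacitracin, 0.003% Tween-20; 10-point 3-fold dilutions, NSB with 1 μM Gcg.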

SMILES | EC50 [1] | EC50 [2] | Ki [3]
CC[C@H](C)[C@H](NC(=O)[C@H](Cc1ccccc1)NC(=O)[C@@H](NC(=O)CNC(=O)[C@H](CCC(=O)O)NC(=O)C(C)(C)NC(=O)[C@@H](N)Cc1ccc(O)cc1)[C@@H](C)O)C(=O)N[C@@H](CO)C(=O)N[C@@H](CC(=O)O)C(=O)N[C@@H](Cc1ccc(O)cc1)C(=O)N[C@@H](CO)C(=O)N[C@H](C(=O)N[C@@](C)(CC(C)C)C(=O)N[C@@H](CC(C)C)C(=O)N[C@@H](CC(=O)O)C(=O)N[C@@H](CCCCN)C(=O)N[C@@H](CCCCNC(=O)COCCOCCNC(=O)COCCOCCNC(=O)CC[C@H](NC(=O)CCCCCCCCCCCCCCCCCCC(=O)O)C(=O)O)C(=O)N[C@@H](Cc1c[nH]cn1)C(=O)N[C@@H](CCC(N)=O)C(=O)NC(C)(C)C(=O)N[C@@H](CC(=O)O)C(=O)N[C@@H](Cc1ccccc1)C(=O)N[C@H](C(=O)N[C@@H](CCC(=O)O)C(=O)N[C@@H](Cc1ccncc1)C(=O)N[C@@H](CC(C)C)C(=O)N[C@@H](CC(C)C)C(=O)N[C@@H](C)C(=O)N[C@@H](C)C(=O)NCC(=O)N1CCC[C@H]1C(=O)N[C@@H](CO)C(=O)N[C@@H](CO)C(=O)NCC(=O)N[C@@H](C)C(=O)N1CCC[C@H]1C(=O)N1CCC[C@H]1C(=O)N1CCC[C@H]1C(=O)N[C@@H](CO)C(N)=O)C(C)C)[C@@H](C)CC [Example 78] | 3000 nM | > 5000 nM | 0.505 µM
CC[C@H](C)[C@H](NC(=O)[C@H](CO)NC(=O)[C@H](Cc1ccc(O)cc1)NC(=O)[C@H](CC(=O)O)NC(=O)[C@H](CO)NC(=O)[C@@H](NC(=O)[C@H](Cc1ccccc1)NC(=O)[C@@H](NC(=O)CNC(=O)[C@H](CCC(=O)O)NC(=O)[C@@H](C)NC(=O)[C@@H](N)Cc1ccc(O)cc1)[C@@H](C)O)[C@@H](C)CC)C(=O)N[C@@H](CC(C)C)C(=O)N[C@@H](CC(C)C)C(=O)N[C@@H](CC(=O)O)C(=O)N[C@@H](CCCCN)C(=O)N[C@@H](CCCCNC(=O)COCCOCCNC(=O)COCCOCCNC(=O)CC[C@H](NC(=O)CCCCCCCCCCCCCCCCC(=O)O)C(=O)O)C(=O)N[C@@H](C)C(=O)N[C@@H](CCC(N)=O)C(=O)NC(C)(C)C(=O)N[C@@H](CC(=O)O)C(=O)N[C@@H](Cc1ccccc1)C(=O)N[C@H](C(=O)N[C@@H](CC(N)=O)C(=O)N[C@@H](Cc1c[nH]c2ccccc12)C(=O)N[C@@H](CC(C)C)C(=O)N[C@@H](CC(C)C)C(=O)N[C@@H](C)C(=O)NCC(=O)NCC(=O)N1CCC[C@H]1C(=O)N[C@@H](CO)C(=O)N[C@@H](CO)C(=O)NCC(=O)N[C@@H](C)C(=O)N1CCC[C@H]1C(=O)N1CCC[C@H]1C(=O)N1CCC[C@H]1C(=O)N[C@@H](CO)C(N)=O)C(C)C [Example 19] (H-Y[dA]EGTFISDYSILLDKK([AEEA-AEEA-γGlu-C18 diacid])AQ[Aib]DFVNWLLAGGPSSGAPPPS-NH2) | > 5000 nM | > 5000 nM | 0.335 µM
CC[C@H](C)[C@H](NC(=O)[C@H](CCCN)NC(=O)[C@H](CC(=O)O)NC(=O)[C@H](CC(C)C)NC(=O)[C@](C)(CC(C)C)NC(=O)[C@@H](NC(=O)[C@H](CO)NC(=O)[C@H](Cc1ccc(O)cc1)NC(=O)[C@H](CC(=O)O)NC(=O)[C@H](CO)NC(=O)[C@@H](NC(=O)[C@H](Cc1ccccc1)NC(=O)[C@@H](NC(=O)CNC(=O)[C@H](CCC(=O)O)NC(=O)C(C)(C)NC(=O)[C@@H](N)Cc1ccc(O)cc1)[C@@H](C)O)[C@@H](C)CC)[C@@H](C)CC)C(=O)N[C@@H](Cc1c[nH]cn1)C(=O)N[C@@H](CCC(N)=O)C(=O)NC(C)(C)C(=O)N[C@@H](CCC(=O)O)C(=O)N[C@@H](Cc1ccccc1)C(=O)N[C@H](C(=O)N[C@H](CCC(=O)O)C(=O)N[C@@H](Cc1ccc(O)cc1)C(=O)N[C@@H](CCCCNC(=O)COCCOCCNC(=O)COCCOCCNC(=O)CC[C@H](NC(=O)CCCCCCCCCCCCCCCCCCC(=O)O)C(=O)O)C(=O)N[C@@H](CC(C)C)C(=O)N[C@@H](CCC(=O)O)C(=O)NCC(=O)NCC(=O)N1CCC[C@H]1C(=O)N[C@@H](CO)C(=O)N[C@@H](CO)C(=O)NCC(=O)N[C@@H](C)C(=O)N1CCC[C@H]1C(=O)N1CCC[C@H]1C(=O)N1CCC[C@H]1C(=O)N[C@@H](CO)C(N)=O)C(C)C [Example 102] (H-Y[Aib]EGTFISDYSI[αMeL]LD[Orn]IHQ[Aib]EFV[dE]YK([AEEA-AEEA-γGlu-C20 diacid])LEGGPSSGAPPPS-NH2) | > 5000 nM | > 5000 nM | > 0.961 µM
CC[C@H](C)[C@H](NC(=O)[C@H](Cc1ccccc1)NC(=O)[C@@H](NC(=O)CNC(=O)[C@H](CCC(=O)O)NC(=O)C(C)(C)NC(=O)[C@@H](N)Cc1ccc(O)cc1)[C@@H](C)O)C(=O)N[C@@H](CO)C(=O)N[C@@H](CC(=O)O)C(=O)N[C@@H](Cc1ccc(O)cc1)C(=O)N[C@@H](CO)C(=O)N[C@H](C(=O)N[C@@](C)(CC(C)C)C(=O)N[C@@H](CC(C)C)C(=O)N[C@@H](CC(=O)O)C(=O)N[C@@H](CCCN)C(=O)N[C@@H](CCCCNC(=O)COCCOCCNC(=O)COCCOCCNC(=O)CC[C@H](NC(=O)CCCCCCCCCCCCCCCCCCC(=O)O)C(=O)O)C(=O)N[C@@H](Cc1c[nH]cn1)C(=O)N[C@@H](CCC(N)=O)C(=O)NC(C)(C)C(=O)N[C@@H](CC(=O)O)C(=O)N[C@@H](Cc1ccccc1)C(=O)N[C@H](C(=O)N[C@@H](CCC(=O)O)C(=O)N[C@@H](Cc1ccncc1)C(=O)N[C@@H](CC(C)C)C(=O)N[C@@H](CC(C)C)C(=O)N[C@@H](CCC(=O)O)C(=O)N[C@@H](C)C(=O)NCC(=O)N1CCC[C@H]1C(=O)N[C@@H](CO)C(=O)N[C@@H](CO)C(=O)NCC(=O)N[C@@H](C)C(=O)N1CCC[C@H]1C(=O)N1CCC[C@H]1C(=O)N1CCC[C@H]1C(=O)N[C@@H](CO)C(N)=O)C(C)C)[C@@H](C)CC [Example 4] | 1690 nM | > 5000 nM | 0.431 µM
CC[C@H](C)[C@H](NC(=O)[C@H](CO)NC(=O)[C@H](Cc1ccc(O)cc1)NC(=O)[C@H](CC(=O)O)NC(=O)[C@H](CO)NC(=O)[C@@H](NC(=O)[C@](C)(Cc1ccccc1F)NC(=O)[C@@H](NC(=O)CNC(=O)[C@H](CCC(=O)O)NC(=O)C(C)(C)NC(=O)[C@@H](N)Cc1ccc(O)cc1)[C@@H](C)O)[C@@H](C)CC)C(=O)N[C@@H](C)C(=O)N[C@@H](CC(C)C)C(=O)N[C@@H](CC(=O)O)C(=O)N[C@@H](CCCCN)C(=O)N[C@H](C(=O)N[C@@H](Cc1c[nH]cn1)C(=O)N[C@@H](CCC(N)=O)C(=O)NC(C)(C)C(=O)N[C@@H](CC(=O)O)C(=O)N[C@@H](Cc1ccccc1)C(=O)N[C@H](C(=O)N[C@@H](CCC(=O)O)C(=O)N[C@@H](Cc1ccc(O)cc1)C(=O)N[C@@H](CCCCNC(=O)COCCOCCNC(=O)COCCOCCNC(=O)CC[C@H](NC(=O)CCCCCCCCCCCCCCCCCCC(=O)O)C(=O)O)C(=O)N[C@@H](CC(C)C)C(=O)N[C@@H](CCC(=O)O)C(=O)NCC(=O)NCC(=O)N1CCC[C@H]1C(=O)N[C@@H](CO)C(=O)N[C@@H](CO)C(=O)NCC(=O)N[C@@H](C)C(=O)N1CCC[C@H]1C(=O)N1CCC[C@H]1C(=O)N1CCC[C@H]1C(=O)N[C@@H](CO)C(N)=O)C(C)C)[C@@H](C)CC [Example 99] (H-Y[Aib]EGT[αMePhe(2-F)]ISDYSIALDKIHQ[Aib]DFVEYK([AEEA-AEEA-γGlu-C20 diacid])LEGGPSSGAPPPS-NH2) | > 5000 nM | > 5000 nM | 0.174 µM
CC[C@H](C)[C@H](NC(=O)[C@H](CCCN)NC(=O)[C@H](CC(=O)O)NC(=O)[C@H](CC(C)C)NC(=O)[C@](C)(CC(C)C)NC(=O)[C@@H](NC(=O)[C@H](CO)NC(=O)[C@H](Cc1ccc(O)cc1)NC(=O)[C@H](CC(=O)O)NC(=O)[C@H](CO)NC(=O)[C@@H](NC(=O)[C@H](Cc1ccccc1)NC(=O)[C@@H](NC(=O)CNC(=O)[C@H](CCC(=O)O)NC(=O)C(C)(C)NC(=O)[C@@H](N)Cc1ccc(O)cc1)[C@@H](C)O)[C@@H](C)CC)[C@@H](C)CC)C(=O)N[C@@H](Cc1c[nH]cn1)C(=O)N[C@@H](CCC(N)=O)C(=O)NC(C)(C)C(=O)N[C@@H](CCC(=O)O)C(=O)N[C@@H](Cc1ccccc1)C(=O)N[C@H](C(=O)N[C@H](CCC(=O)O)C(=O)N[C@@H](Cc1ccc(O)cc1)C(=O)N[C@@H](CCCCNC(=O)COCCOCCNC(=O)COCCOCCNC(=O)CC[C@H](NC(=O)CCCCCCCCCCCCCCCCC(=O)O)C(=O)O)C(=O)N[C@@H](CC(C)C)C(=O)N[C@@H](CCC(=O)O)C(=O)NCC(=O)NCC(=O)N1CCC[C@H]1C(=O)N[C@@H](CO)C(=O)N[C@@H](CO)C(=O)NCC(=O)N[C@@H](C)C(=O)N1CCC[C@H]1C(=O)N1CCC[C@H]1C(=O)N1CCC[C@H]1C(=O)N[C@@H](CO)C(N)=O)C(C)C [Example 7] | > 5000 nM | > 5000 nM | > 0.961 µM
CC[C@H](C)[C@H](NC(=O)[C@H](CO)NC(=O)[C@H](Cc1ccc(O)cc1)NC(=O)[C@H](CC(=O)O)NC(=O)[C@H](CO)NC(=O)[C@@H](NC(=O)[C@H](Cc1ccccc1)NC(=O)[C@@H](NC(=O)CNC(=O)[C@H](CCC(=O)O)NC(=O)[C@@H](C)NC(=O)[C@@H](N)Cc1ccc(O)cc1)[C@@H](C)O)[C@@H](C)CC)C(=O)N[C@@H](CC(C)C)C(=O)N[C@@H](CC(C)C)C(=O)N[C@@H](CC(=O)O)C(=O)N[C@@H](CCCCN)C(=O)N[C@@H](CCCCNC(=O)COCCOCCNC(=O)COCCOCCNC(=O)CC[C@H](NC(=O)CCCCCCCCCCCCCCCCC(=O)O)C(=O)O)C(=O)N[C@@H](C)C(=O)N[C@@H](CCC(N)=O)C(=O)NC(C)(C)C(=O)N[C@@H](CC(=O)O)C(=O)N[C@@H](Cc1ccccc1)C(=O)N[C@H](C(=O)N[C@@H](CCC(=O)O)C(=O)N[C@@H](Cc1c[nH]c2ccccc12)C(=O)N[C@@H](CC(C)C)C(=O)N[C@@H](CC(C)C)C(=O)N[C@@H](C)C(=O)N[C@@H](CCC(N)=O)C(=O)NCC(=O)N1CCC[C@H]1C(=O)N[C@@H](CO)C(=O)N[C@@H](CO)C(=O)NCC(=O)N[C@@H](C)C(=O)N1CCC[C@H]1C(=O)N1CCC[C@H]1C(=O)N1CCC[C@H]1C(=O)N[C@@H](CO)C(N)=O)C(C)C [Example 16] (H-Y[dA]EGTFISDYSILLDKK([AEEA-AEEA-γGlu-C18 diacid])AQ[Aib]DFVEWLLAQGPSSGAPPPS-NH2) | > 5000 nM | > 5000 nM | 0.549 µM
